Here are results for two compounds from publication PMC7883289, “Synthesis of Paeonol-Ozagrel Conjugate: Structure Characterization and In Vivo Anti-Ischemic Stroke potential” (Frontiers in Pharmacology, 2021).

For experiment [1], the system named is middle cerebral artery occlusion (MCAO) rats. The experiment is described as follows: Evaluation of neurological deficit (Longa score) in MCAO rats. The class given is in vivo. Conditions: 24 h after reperfusion, single iv dose 2 h after reperfusion: paeonol and OS 3 mg/kg, POC 4.5 mg/kg, n = 6. As for the experimental part: Male Sprague Dawley (SD) rats weighing among 220 g-230 g (Anhui Medicine University, Hefei, China; certificate number: SCXK20190,003) were housed under ad libitum access to food and water with a standardized light-dark cycle condition (25 ± 2°C, 12-hour light/dark cycle). All the experimental protocols were performed in accordance with the Institutional Animal Care and Use Committee of Anhui University of Chinese Medicine (Animal ethics number: AHUCM-rats-2019001). We used the minimal number of study animals (n = 6 rats in each group for different experiments). The rats were fastened upon the operating table in a supine position after being anesthetized with 2% pelltobarbitalum natricum (50 mg/kg). After disinfection of the skin within close proximity of the operative region, the right common carotid artery (CCA), external carotid artery (ECA) and internal carotid artery (ICA) were exposed with blunt dissection. The CCA was temporarily ligated and the ECA were permanently ligated ([Liu et al., 2016]). A nylon monofilament surgical thread was introduced into the ICA to block the MCA when the blunted distal end met resistance. After 2 h of occlusion, reperfusion was accomplished to restore blood supply to the MCA area by removing the filament ([Li et al., 2009]; [Zhai et al., 2017]). […] Rats were split randomly into five groups, including the sham, model, paeonol, OS and POC group. […] Neurological deficit was evaluated 24 h after reperfusion (blinded to experimenters). […] The rating score was assessed by the following standard: no neurological deficit, 0; failure to extend left forepaw fully, one; spontaneous circling to the left, two; falling to the left, three; inability to walk spontaneously and coma of consciousness, 4. […] Neurological scores for each group were calculated using six rats according to a sample size calculation (α err prob = 0.05, 1-β err prob = 0.95) and references ([Katayama et al., 2017]; [[…] al., 2019]; [Zheng et al., 2019]).

Experiment [2] shares this test system. The experiment is described as follows: Measurement of infarct volume by TTC staining in MCAO rats. Conditions: 24 h after reperfusion, single iv dose: paeonol and OS 3 mg/kg, POC 4.5 mg/kg, n = 6. It counts as in vivo. As for the experimental part: Male Sprague Dawley (SD) rats weighing among 220 g-230 g (Anhui Medicine University, Hefei, China; certificate number: SCXK20190,003) were housed under ad libitum access to food and water with a standardized light-dark cycle condition (25 ± 2°C, 12-hour light/dark cycle). All the experimental protocols were performed in accordance with the Institutional Animal Care and Use Committee of Anhui University of Chinese Medicine (Animal ethics number: AHUCM-rats-2019001). We used the minimal number of study animals (n = 6 rats in each group for different experiments). The rats were fastened upon the operating table in a supine position after being anesthetized with 2% pelltobarbitalum natricum (50 mg/kg). After disinfection of the skin within close proximity of the operative region, the right common carotid artery (CCA), external carotid artery (ECA) and internal carotid artery (ICA) were exposed with blunt dissection. The CCA was temporarily ligated and the ECA were permanently ligated ([Liu et al., 2016]). A nylon monofilament surgical thread was introduced into the ICA to block the MCA when the blunted distal end met resistance. After 2 h of occlusion, reperfusion was accomplished to restore blood supply to the MCA area by removing the filament ([Li et al., 2009]; [Zhai et al., 2017]). […] Rats were split randomly into five groups, including the sham, model, paeonol, OS and POC group. After 2 h of reperfusion, the paeonol and OS groups received the drug by intravenous injection at a single dose of 3 mg/kg ([Imamura et al., 2003]; [Park et al., 2010]; [Gai et al., 2019]), which the doses of paeonol and OS uesd previously were benificial in rats and the dose of OS is within the clinical dose range. […] Cerebral infarction volume was determined using TTC staining. […] The infarction and total brain volume were quantified using ImageJ software. The infarct volume was calculated as a ratio of the infarcted tissue relative to the total area of the whole-brain coronal section ([Ye and Gao, 2008]; [Katayama et al., 2017]). […]

The structures appear in SMILES notation.

On to `O=C([O-])/C=C/c1ccc(Cn2ccnc2)cc1.[Na+]` [OS, Ozagrel sodium], for which the “neurological deficits score (Longa, 0-4)” value in experiment [1] came to 2.00 ± 0.63. Further, in experiment [2], the “cerebral infarction volume percentage” value is 18.68% ± 1.35.
The matching figures for `COc1ccc(C(C)=O)c(O)c1` [paeonol]: 2.50 ± 0.55 and 20.87% ± 1.43.
